# Data from ChEMBL document CHEMBL3045999, “Synthesis, characterization and antimicrobial activity of 4-amino-1-alkyl pyridinium salts” (Med Chem Res, 2012).
# Activity calls are given as the source filed them. The rule behind the calls is not given here.
# Columns and labels:
# Nakaseomyces glabratus [1] = experiment: Fungistatic activity against Candida glabrata NCIM 3236 at 500 ug/disk after 24 hr by disk diffusion method; format: functional, organism-based
# Staphylococcus aureus [2] = experiment: Bacteriostatic activity against Staphylococcus aureus NCIM 5021 at 500 ug/disc after 24 hr by disk diffusion method; format: functional, organism-based
# Candida albicans [3] = experiment: Fungistatic activity against Candida albicans NCIM 3074 at 500 ug/disk after 24 hr by disk diffusion method; format: functional, organism-based
# Escherichia coli [4] = experiment: Bacteriostatic activity against Escherichia coli NCIM 2065 at 500 ug/disk after 24 hr by disk diffusion method; format: functional, organism-based
# Candida albicans [5] = experiment: Antifungal activity against Candida albicans NCIM 3074 assessed as inhibition of germ tube formation after 3 to 4 hr; format: functional
# Candida albicans [6] = experiment: Fungicidal activity against Candida albicans NCIM 3074 after 24 hr by NCCLS broth microdilution method; format: functional; details: NCIM 3074, 24 h
# Staphylococcus aureus [7] = experiment: Bactericidal activity against Staphylococcus aureus NCIM 5021 after 24 hr by NCCLS broth microdilution method; format: functional; details: NCIM 5021, 24 h
# Candida albicans [8] = experiment: Antifungal activity against Candida albicans NCIM 3074 after 24 hr by NCCLS broth microdilution method; format: functional; details: NCIM 3074, 24 h
# Staphylococcus aureus [9] = experiment: Antibacterial activity against Staphylococcus aureus NCIM 5021 after 24 hr by NCCLS broth microdilution method; format: functional; details: NCIM 5021, 24 h
# Nakaseomyces glabratus [10] = experiment: Antifungal activity against Candida glabrata NCIM 3236 at 500 ug/disk after 24 hr by disk diffusion method; format: functional; details: NCIM 3236, 24 h, read-out: IZ
# Candida albicans [11] = experiment: Antifungal activity against Candida albicans NCIM 3074 at 500 ug/disk after 24 hr by disk diffusion method; format: functional; details: NCIM 3074, 24 h, read-out: IZ
# Staphylococcus aureus [12] = experiment: Antibacterial activity against Staphylococcus aureus NCIM 5021 at 500 ug/disc after 24 hr by disk diffusion method; format: functional; details: NCIM 5021, 24 h, read-out: IZ
# Escherichia coli [13] = experiment: Antibacterial activity against Escherichia coli NCIM 2065 at 500 ug/disk after 24 hr by disk diffusion method; format: functional; details: NCIM 2065, 24 h, read-out: IZ
# Candida albicans [14] = experiment: Inhibition of Candida albicans phospholipase at 124.96 uM after 30 min
# [15] = Cytotoxicity against Homo sapiens (human) erythrocytes assessed as hemolytic activity at 124.96 uM after 1 hr; format: cell-based, Erythrocyte; details: read-out: Activity
# [16] = Cytotoxicity against Homo sapiens (human) erythrocytes assessed as hemolytic activity at 15.62 uM after 1 hr; format: cell-based, Erythrocyte; details: read-out: Activity
# Nakaseomyces glabratus [17] = experiment: Fungistatic activity against Candida glabrata NCIM 3236 at 25 ug/disk after 24 hr by disk diffusion method; format: functional, organism-based
# Candida albicans [18] = experiment: Fungistatic activity against Candida albicans NCIM 3074 at 25 ug/disk after 24 hr by disk diffusion method; format: functional, organism-based
# Staphylococcus aureus [19] = experiment: Bacteriostatic activity against Staphylococcus aureus NCIM 5021 at 20 ug/disc after 24 hr by disk diffusion method; format: functional, organism-based
# Escherichia coli [20] = experiment: Bacteriostatic activity against Escherichia coli NCIM 2065 at 20 ug/disk after 24 hr by disk diffusion method; format: functional, organism-based
Compound,Activity (Nakaseomyces glabratus [1]),Activity (Candida albicans [3]),zone of inhibition at 500 µg/disc (Nakaseomyces glabratus [10]) [mm],zone of inhibition at 500 µg/disc (Candida albicans [11]) [mm],zone of inhibition at 500 µg/disc (Staphylococcus aureus [12]) [mm],zone of inhibition at 500 µg/disc (Escherichia coli [13]) [mm],also measured
CCCC[n+]1ccc(N)cc1,inactive,inactive,,,,,Activity (Staphylococcus aureus [2]): Active; Activity (Escherichia coli [4]): Active
CCCCCCCCCCCCCCCC[n+]1ccc(N)cc1.[Br-],,,30,26.5,36,34,INH (Candida albicans [5]): 15.62 µM; MFC (Candida albicans [6]): 31.2 µM; MBC (Staphylococcus aureus [7]): 15.6 µM; MIC (Candida albicans [8]): 15.6 µM; MIC (Staphylococcus aureus [9]): < 15.6 µM
CCCCCCCCCCCCCC[n+]1ccc(N)cc1,,,8.5,9,6,6.5,
CCCCCCCCn1ccc(=N)cc1,,,22,14,25,27,
CCCCCCC[n+]1ccc(N)cc1,,,16,10.5,25,26,
CCCCC[n+]1ccc(N)cc1,Active,inactive,,,14,16,
CCC[n+]1ccc(N)cc1,inactive,inactive,,,,,Activity (Staphylococcus aureus [2]): Active; Activity (Escherichia coli [4]): Active
CCn1ccc(=N)cc1,inactive,inactive,,,,,Activity (Staphylococcus aureus [2]): inactive; Activity (Escherichia coli [4]): inactive
CCCCCCCCCCn1ccc(=N)cc1,,,26,23.5,28,29,"inhibition (Candida albicans [14]): Active; hemolysis at 1 h, 124.96 µM [15]: 97.4%; hemolysis at 1 h, 15.62 µM [16]: 0.57%"
CCCCCCn1ccc(=N)cc1,,Active,10,,21,18,
CN[C@@H]1[C@H](O[C@H]2[C@H](O[C@H]3[C@H](O)[C@@H](O)[C@H](N=C(N)N)[C@@H](O)[C@@H]3N=C(N)N)O[C@@H](C)[C@]2(O)C=O)O[C@@H](CO)[C@H](O)[C@H]1O [STREPTOMYCIN],,,,,30,32,Activity (Nakaseomyces glabratus [17]): inactive; Activity (Candida albicans [18]): inactive
C[C@@H]1[C@H](O)[C@@H](C)/C=C/C=C/C=C/C=C/C=C/C=C/C=C/[C@H](O[C@@H]2O[C@H](C)[C@@H](O)[C@H](N)[C@@H]2O)C[C@@H]2O[C@](O)(C[C@@H](O)C[C@@H](O)[C@H](O)CC[C@@H](O)C[C@@H](O)CC(=O)O[C@H]1C)C[C@H](O)[C@H]2C(=O)O [AMPHOTERICIN B],,,14,10,,,Activity (Staphylococcus aureus [19]): inactive; Activity (Escherichia coli [20]): inactive
